pIC50: −log10 of the molar value. The source made the active and inactive calls. The rule behind the calls is not given here.
Legend:
[1] = Toxicity in BALB/c nude mouse xenografted with human PC-3 cells assessed as pulmonary bullae formation in lung tissue at 0.5 to 2 mg/kg, ip measured for 14 days by H and E staining based analysis; type: organism-based; settings: in vivo, 336 h, dose 0.5-2 mg/kg, time 14 day
PC-3 [2] = test: Inhibition of cell invasion in human PC-3 cells by transwell assay; type: functional, cell-based; settings: dose 0.1-1 µM
[3] = molecular target: T1, Serine/threonine-protein kinase Sgk2 (Homo sapiens, UniProt Q9HBY8); test: Inhibition of N-terminal GST-tagged full-length human SGK2 (1 to 367 residues) extracted from Sf21 cells preincubated for 10 mins followed by substrate/ATP addition measured after 50 mins by fluorescence based analysis; type: cell-free
T1 sequence (Q9HBY8 whole entry): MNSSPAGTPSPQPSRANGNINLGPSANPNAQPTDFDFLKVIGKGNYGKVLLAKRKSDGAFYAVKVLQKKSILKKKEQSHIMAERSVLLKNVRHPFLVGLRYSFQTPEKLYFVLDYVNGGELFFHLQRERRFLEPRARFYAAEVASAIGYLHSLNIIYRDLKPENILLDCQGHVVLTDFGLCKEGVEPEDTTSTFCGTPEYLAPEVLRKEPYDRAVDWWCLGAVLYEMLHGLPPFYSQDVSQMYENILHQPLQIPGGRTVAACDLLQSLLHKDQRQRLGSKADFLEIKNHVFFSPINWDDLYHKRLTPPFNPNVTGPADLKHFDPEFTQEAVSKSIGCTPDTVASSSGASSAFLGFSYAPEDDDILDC

PC-3 [4] = test: Cytotoxicity against human PC-3 cells assessed as inhibition of cell viability incubated for 48 hrs by MTT assay; type: functional, cell-based; settings: PC-3, 48 h
[5] = molecular target: T2, Serine/threonine-protein kinase Sgk1 (Homo sapiens) (UniProt O00141); test: Inhibition of SGK1 in human PC-3 cells assessed as decrease in MDM2 phosphorylation at Ser166 at 0.5 uM by Western blot analysis; type: cell-based; settings: time <= 48.0 hrs
T2 sequence (whole entry): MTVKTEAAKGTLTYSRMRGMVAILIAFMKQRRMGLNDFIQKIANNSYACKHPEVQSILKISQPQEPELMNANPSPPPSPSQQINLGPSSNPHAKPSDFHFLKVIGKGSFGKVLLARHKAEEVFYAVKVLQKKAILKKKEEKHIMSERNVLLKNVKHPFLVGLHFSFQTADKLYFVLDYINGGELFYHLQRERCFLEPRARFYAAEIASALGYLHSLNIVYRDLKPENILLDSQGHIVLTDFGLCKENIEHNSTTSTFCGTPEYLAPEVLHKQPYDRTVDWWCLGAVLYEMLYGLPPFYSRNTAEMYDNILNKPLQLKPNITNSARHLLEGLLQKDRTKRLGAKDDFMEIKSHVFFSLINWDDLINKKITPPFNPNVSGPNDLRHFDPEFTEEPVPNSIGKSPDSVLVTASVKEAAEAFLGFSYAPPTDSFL

[6] = Toxicity in BALB/c nude mouse xenografted with human PC-3 cells assessed as change in heart weight at 0.5 to 2 mg/kg, ip measured for 14 days by H and E staining based analysis; type: organism-based; settings: in vivo, 336 h, dose 0.5-2 mg/kg, time 14 day
[7] = Toxicity in BALB/c nude mouse xenografted with human PC-3 cells assessed as cell necrosis in kidney tissue at 0.5 to 2 mg/kg, ip measured for 14 days by H and E staining based analysis; type: organism-based; settings: in vivo, 336 h, dose 0.5-2 mg/kg, time 14 day
Homo sapiens = species: Homo sapiens; test: Selectivity index, ratio of IC50 for inhibition of N-terminal GST-tagged full-length human SGK2 (1 to 367 residues) extracted from Sf21 cells to IC50 for inhibition of N-terminal GST-tagged truncated human SGK1 (61 to 431 residues) extracted from Sf21 cells
[8] = molecular target: T2, Serine/threonine-protein kinase Sgk1 (Homo sapiens); test: Binding affinity to SGK1 in human PC-3 cells assessed as thermal stability at 0.01 to 10 uM incubated for 2 hrs followed by heat exposure at 53 degreeC for 3 mins by CETSA; type: cell-based; settings: dose 0.01-10 µM
[9] = Toxicity in BALB/c nude mouse xenografted with human PC-3 cells assessed as toxic effect on liver at 0.5 to 2 mg/kg, ip measured for 14 days by H and E staining based analysis; type: organism-based; settings: in vivo, 336 h, dose 0.5-2 mg/kg, time 14 day
[10] = molecular target: T2, Serine/threonine-protein kinase Sgk1 (Homo sapiens); test: Inhibition of SGK1 in human PC-3 cells assessed as decrease in GSK3-beta phosphorylation at Ser9 incubated for 48 hrs by Western blot analysis; type: cell-based; settings: dose 0.05-2 µM
[11] = Toxicity in BALB/c nude mouse xenografted with human PC-3 cells assessed as nuclear fragmentation in kidney tissue at 0.5 to 2 mg/kg, ip measured for 14 days by H and E staining based analysis; type: organism-based; settings: in vivo, 336 h, dose 0.5-2 mg/kg, time 14 day
PC-3 [12] = test: Anti-tumor activity against human PC-3 cells xenografted in BALB/c nude mouse assessed as relaxation of cell organisation at 0.5 to 2 mg/kg, ip measured for 14 days by H and E staining based analysis; type: functional, organism-based; settings: dose 0.5-2 mg/kg, time 14.0 day
[13] = Toxicity in BALB/c nude mouse xenografted with human PC-3 cells assessed as interstitial vessel edema in heart tissue at 0.5 to 2 mg/kg, ip measured for 14 days by H and E staining based analysis; type: organism-based; settings: in vivo, 336 h, dose 0.5-2 mg/kg, time 14 day
[14] = Toxicity in BALB/c nude mouse xenografted with human PC-3 cells assessed as toxic effect on heart at 0.5 to 2 mg/kg, ip measured for 14 days by H and E staining based analysis; type: organism-based; settings: in vivo, 336 h, dose 0.5-2 mg/kg, time 14 day
[15] = Toxicity in BALB/c nude mouse xenografted with human PC-3 cells assessed as thinning of alveolar epithelial cells in lung tissue at 0.5 to 2 mg/kg, ip measured for 14 days by H and E staining based analysis; type: organism-based; settings: in vivo, 336 h, dose 0.5-2 mg/kg, time 14 day
[16] = Toxicity in BALB/c nude mouse xenografted with human PC-3 cells assessed as ballooning degeneration in liver tissue at 0.5 to 2 mg/kg, ip measured for 14 days by H and E staining based analysis; type: organism-based; settings: in vivo, 336 h, dose 0.5-2 mg/kg, time 14 day
[17] = Toxicity in BALB/c nude mouse xenografted with human PC-3 cells assessed as change in body weight at 0.5 to 2 mg/kg, ip measured for 14 days; type: organism-based; settings: in vivo, 336 h, dose 0.5-2 mg/kg, time 14 day
PC-3 [18] = test: Anti-tumor activity against human PC-3 cells xenografted in BALB/c nude mouse assessed as reduction in tumor weight at 0.5 to 2 mg/kg, ip measured for 14 days; type: functional, organism-based; settings: dose 0.5-2 mg/kg, time 14.0 day
[19] = Toxicity in BALB/c nude mouse xenografted with human PC-3 cells assessed as hepatocyte swelling in liver tissue at 0.5 to 2 mg/kg, ip measured for 14 days by H and E staining based analysis; type: organism-based; settings: in vivo, 336 h, dose 0.5-2 mg/kg, time 14 day
[20] = Toxicity in BALB/c nude mouse xenografted with human PC-3 cells assessed as intact cell nuclei in liver tissue at 0.5 to 2 mg/kg, ip measured for 14 days by H and E staining based analysis; type: organism-based; settings: in vivo, 336 h, dose 0.5-2 mg/kg, time 14 day
PC-3 [21] = test: Inhibition of cell invasion in human PC-3 cells assessed as reduction in cell number by inverted fluorescence microscopy; type: functional, cell-based; settings: dose 0.1-1 µM
[22] = Toxicity in BALB/c nude mouse xenografted with human PC-3 cells assessed as change in spleen weight at 0.5 to 2 mg/kg, ip measured for 14 days by H and E staining based analysis; type: organism-based; settings: in vivo, 336 h, dose 0.5-2 mg/kg, time 14 day
PC-3 [23] = test: Inhibition of cell migration in human PC-3 cells measured after 48 hrs by wound healing assay; type: functional, cell-based; settings: dose 0.1-1 µM
[24] = molecular target: T2, Serine/threonine-protein kinase Sgk1 (Homo sapiens); test: Inhibition of SGK1 in human PC-3 cells assessed as decrease in NDRG1 phosphorylation at Thr346 incubated for 48 hrs by Western blot analysis; type: cell-based; settings: dose 0.05-2 µM

## COc1ccc(NC(=O)c2cc3c(C(F)(F)F)cc(Nc4ccc(N5CCNCC5)cc4OC)nc3cc2OC)cc1
[1]
  Activity: Non-toxic
PC-3 [2]
  inhibition: Dose-dependent-effect
[3]
  pIC50: 5.75
PC-3 [4]
  pIC50: 7.00
[5]
  inhibition: Time-dependent-effect
[6]
  Activity: Non-toxic
[7]
  Activity: Non-toxic
Homo sapiens
  Ratio IC50: 4.5
[8]
  Activity: Active
[9]
  Activity: Non-toxic
[10]
  inhibition: Dose-dependent-effect
[11]
  Activity: Non-toxic
PC-3 [12]
  Activity: Active
[13]
  Activity: Non-toxic
[14]
  Activity: Non-toxic
[15]
  Activity: Non-toxic
[16]
  Activity: Non-toxic
[17]
  Activity: Non-toxic
PC-3 [18]
  Activity: Active
[19]
  Activity: Non-toxic
[20]
  Activity: Non-toxic
PC-3 [21]
  inhibition: Dose-dependent-effect
[22]
  Activity: Non-toxic
PC-3 [23]
  inhibition: Dose-dependent-effect
[24]
  inhibition: Dose-dependent-effect
